Measurements: patent US20200062719A1, “Application of Imidazopyridine Derivatives in Regenerative Medicine” (University of Heidelberg, priority 2018, published 2020)

Experiments:
[1] = Metabolic analysis of O4I2 incubated with NCCIT cells (HPLC, LC/MS); assay type: in vitro ADME, human; conditions: 24 hours, O4I2 50 μM
Experimental: (§1) The inventors adopted Hantzsch thiazole synthesis (FIG. 20A) and produced a series of new O4I2-ester derivatives (FIG. 20B). Their activities were measured in three luciferase report cell lines, namely HEK-OCT4, driven by the activation of OCT4-promoter, and NCCIT-OCT4 and NCCIT-NANOG, whose intensities are controlled by endogenous OCT4 and NANOG respectively. […] Carboxylesterase 1 (CES1) is an enzyme majorly contributing to ester-to-acid conversion.
NCCIT cells were treated with O4I2 (50 μM) in RPMI 1640 medium containing 2% BSA/FBS. Medium and cells were collected. Cell pellet was solved in 0.1% Triton-x. Protein precipitated by adding MeOH (pH=2) in lysate supernatant on ice for 2 h. Metabolites were extracted from the combined supernatant with ethyl acetate. After removal of organic solvent, residue was dissolved in acetonitrile, frozen immediately in liquid N2 and stored in −80° C. until further analysis.
Samples obtained after purification were diluted to contain 20% MeOH. 100 μL of the sample was transferred to an HPLC vial and placed in the autosampler of an Agilent 1200 series HPLC machine. Sample (20 μL) was injected into the system and metabolites were separated on a C18 column (Kinetex 2.6 μm, C18, 100 Å, dimensions 100×2.1 mm, Phenomenex, Aschaffenburg, Germany). […]

OCT4-promoter = experiment: Luciferase reporter assay in HEK-OCT4 cells; assay type: cell-based; conditions: HEK-OCT4, NCCIT-OCT4 and NCCIT-NANOG
Experimental: In an effort to find such chemical structures able to induce pluripotency, a high-throughput screening (HTS) was performed. The screen was based on cellular luciferase reporter assays under the control of the promoter activity of a pluripotency-associated transcription factor (Oct4) in HEK293 cells.
as §1

[2] = Expression of pluripotency genes in unmodified NCCIT cells; assay type: cell-based, human
Excerpt: Consistently, in unmodified NCCIT cells O4I4 forced the expression of OCT4 (3-fold increase as compared to 0.1% DMSO treatment) and NANOG (30-fold increase) as well as other pluripotency-related genes, like E-CADHERIN, SOX2, REX1 and STAT3, 0414-mediated enrichment of OCT4 and NANOG, as well as SOX2 and E-CADHERIN, was also detected by fluorescence-activated cell sorting. […] It was reported that removal of bFGF led to the loss of pluripotency-marker expression in hPSCs, including OCT4, SOX2, E-CADHERIN and NANOG, which however was rescued in the presence of O4I4 (FIG. 21A), indicating a positive function of O4I4 in maintaining the pluripotency-associated transcriptional circuitry in hPSC.
Quantitative reverse-transcription real-time-PCR was performed using a Light Cycler 96 (Roche, Germany) following the manufacturer's protocol. Briefly, total RNA was isolated from cells using TRIzol (Qiagen, Germany) or NucleoSpin®RNA Plus (Macherey-Nagel, Germany). The same amount of RNA was used to reverse-transcriptional synthesize cDNA by using random primers ProtoScript® First Strand cDNA Synthesis Kit (NEB, Germany). qPCR was performed using the SYBR Green PCR master mix (qPCRBIO SyGreen Mix Lo-Rox, Nippon Genetics, Germany) and the primer pairs indicated below (MWG, Eurofins, Germany). Actin was used as an endogenous control. […]

C. elegans [3] = experiment: C. elegans survival assay under oxidative stress (juglone); assay type: in vivo
Experimental: Eggs were released by lysing gravid adults with bleaching for 10 min. Resuspended eggs in sterile M9 buffer and incubated at 20° C. for 16-18 h. After all the worms were synchronized at the same L1 larval stage, transferred them into the liquid S-media which contents E. coli OP50 (0D600=0.8-1.2). Then, synchronized worms were treated with DMSO, 50 μg/ml epigallocatechin gallate (EGCG) or O4I4 (5 μM, 10 μM, and 20 μM) for further experiments.
After 48 h treatment, around 60 wild-type C. elegans (N2) worms in each sample were transferred into a new liquid S-media which contains 80 μM of superoxide-generating compound juglone (5-hydroxy-1,4-naphthalenedione) for 24 h. If a worm has response via a gentle touch with platinum wire, it is considered as a live worm. Conversely, a dead worm was considered by no response. The function of the survival rate is shown below.

C. elegans [4] = experiment: C. elegans lifespan assay; assay type: in vivo; conditions: 0.5 μM
Experimental: O4I4 (0.5 μM) were continuously added in medium until all the worms die. During the experiment period, every two days or three days, worms were counted either live or die by responding to a gentle touch with a platinum wire.

daf-16 = experiment: Daf-16 localization assay in C. elegans TJ356; assay type: in vivo
Experimental: In this experiment, transgenic worms TJ356 (Daf-16::GFP) are employed to study our target substance affects the localization of daf-1 6. After 24 h treatment, worms were transferred to a glass slide and paralyzed with 10 mM sodium azide. BZ9000 fluorescence microscope was used to observe the localization of daf-1 6. In each sample, around 50 worms were scored for three localization patterns: cytoplasmic, intermediate and nuclear.

Oct4 [5] = experiment: Immunoblotting of OCT4 protein in human primary fibroblasts; assay type: cell-based
Experimental: In human primary fibroblasts, O4I4 promoted the expression of pluripotency-associated genes, including OCT4, SOX2, NANOG, LIN28, E-CADHERIN, REX1 and SALL4. […] FACS analysis further confirmed the O4I4-mediated induction of OCT4 and E-CADHERIN.
iPSCs were lysed using urea-lysis buffer (1 mM EDTA, 0.5% Triton X-100, 5 mM NaF, 6 M Urea, 1 mM Na3VO4, 10 μg/mL Pepstatin, 100 μM PMSF and 3 μg/mL Aprotinin in PBS). Enhanced chemiluminescence (ECL) immunoblot analysis was performed. 40 μg of total protein was resolved on 12% SDS-PAGE gels and immunoblotted with antibodies. […] antibody was used as loading control. Primary antibodies were incubated at 1:1000 dilution in TBS (pH 7.5) with 0.1% Tween-20 and 5% BSA/milk with gentle agitation overnight at 4° C. Secondary antibodies (Dianova, Germany) were incubated in TBS (pH 7.5) with 5% Milk and 0.1% Tween-20 at a 1:10,000 dilution for 1 h at room temperature.

Nanog = experiment: Luciferase reporter assay in NCCIT-Nanog cells; assay type: cell-based, human; conditions: 10 μM, 48 h
Experimental: It is known in the art that Nanog is a direct target of Oct4 and can be activated by other Oct4 inducing compounds. […] At higher concentrations of O4I3 (FIGS. 1B and 1C) less activity was observed. Moreover, the activity of zolpidem (N,N-Dimethyl-2-(6-methyl-2-p-tolylimidazo[1,2-a]pyridin-3-yl)acetamid) (100) containing a similar backbone to O4I3 was tested in both reporter cell lines. An approximate 2-fold induction at 10 μM was detected (FIG. 8 and FIG. 9).
Luciferase reporter assay was performed using Beatle Juice Kit (PJK, Germany) according to the manufacturer's instruction. NCCIT-Oct and NCCIT-Nanog reporter cells were plated into a 24-well plate (100,000 cells/well) for 24 h. Cells were treated with compounds as indicated and harvested with luciferase lysis buffer (25 mM Tris phosphate buffer pH=7.8, 4 mM EGTA, 1% Triton X-100, 10% glycerol and 2 mM fresh DTT, filtered through 0.45 μm sterile filter) at 37° C. for 15 min. The protein concentration was determined by Bradford assay (Sigma, Germany). 100 μL reaction mixture containing luciferin and ATP was added to 20 μL cell lysis in a white plate (Gibco, Germany), incubated for 5 min and measured by a luminometer plate-reader. The activity was determined as percent luminous intensity of treated cells over control cells from at least five-independent experiments.

hiPSCs = experiment: iPSC single cell expansion, viability by MTT assay; assay type: cell-based, human; conditions: much higher concentration and lower efficacy than O4I3
Experimental: Since O4I3 induced sustainable expression of Oct4 and Nanog, the inventors questioned if it supports iPSC self-renewal in single cell expansion. Therefore, the viability of iPSCs, after replating Accutase®-dissociated single iPSCs, was tested in the presence or absence of O4I3. Rocki (Y-27632) was used for the first 24 h to increase iPSCs survival. A nearly 300% higher viability in cells treated with O4I3 (1 nM) was observed. Using 50 nM of O4I3 even 400% increase was observed (FIG. 2A). FACS analysis confirmed homologous expression of iPSCs markers, Tra-1-81 and Oct4, for at least 30 passages (FIG. 2B).
iPSC single cell expansion was performed according to a well-established protocol known in the art (Watanabe et al, Nat Biotechnol, 2007, 25(6), 681-6). Briefly, iPSCs were dissociated with Accutase® as single cell suspension and re-seeded in a Geltrex-coated 96-well plate in the presence of Rock inhibitor for the first 24 h in combination with/without O4I3. Cell viability was performed in MTT assay as disclosed elsewhere (Cheng et al, Mol Oncol. 2016 June; 10(6):806-24).

human fibroblasts = experiment: Episome-based reprogramming of human fibroblasts, AP+ / iPSC-like colonies; assay type: cell-based; conditions: 1 μM, lower efficiency
Experimental: O4I3 was applied in commercially available episome-based reprogramming cocktail containing episomal vectors for overexpression of Oct4, Sox2, Klf4, Lin28 and L-Myc, as well as suppression of p53. In comparison to non-treated fibroblast cultures, 20 times more alkaline phosphatase (AP) positive colonies were detected in the presence of O4I3 at a concentration of 50 nM in two tested human primary fibroblasts (HF1 and HF2) (FIG. 13).
It is known in the art that senescence or other unknown factors can confer donor fibroblasts resistance to reprogramming. Therefore, O4I3 was tested for its ability to enable reprogramming of refractory fibroblasts. Two human fibroblasts were selected. HFF-LTR7-EGFP at passage >40 carrying EGFP driven by a LTR7 promoter, which was activated during reprogramming, and HF5, isolated from a patient sample, both of which were resistant to an episome-based reprogramming approach (FIG. 13).
Epi5® Episomal iPSC Reprogramming Kit (Life technologies) was used to reprogram human fibroblasts according to the manufacturer's protocol. Briefly, 5,000-50,000 cells were seeded in a 24-well plate for 24 h and then transfected with episomal vectors in N2 B27 medium. After 14 days, cells were re-suspended with 0.5 mM EDTA and re-plated in a 6-well plate in Essential®8 medium. Colonies were isolated after 3-4 weeks with the help of alkaline phosphatase (AP) live stain (Life technologies). Medium was refreshed daily.

methylated H3K4 = experiment: In vitro H3K4 methylation assay (Epiquik histone demethylase H3K4 specific kit); assay type: biochemical; conditions: micromolar concentrations
Experimental: (§2) Epiquik histone demethylase (H3K4 specific) activity/inhibition assay kit (Epigentek, Biocat, Germany) was used to measure the protective effect of O4I3 and zolpidem on the methylation of H3K4. Their inhibitory effects on LSD1, KDM5s, and KDM4 were determined using Epigenase jarid demethylase activity/inhibition assay kit, Epigenase JMJD2 demethylase activity/inhibition assay kit and EpiQuik histone demethylase LSD1 activity/inhibition assay kit (Epigentek, Biocat, Germany). The total nuclear extraction was used according to manufacturer's instructions. For measuring KDM5A, KDM5B, KDM5C, and KDM5D activity, magnetic beads were used to immunoprecipitate the respective enzymes from 10^8 cells according to the manufacturer's instructions (Cell Signaling Technologies).

KDM5 = KDM5 demethylase inhibition, whole-cell nuclear extraction; assay type: biochemical; conditions: micromolar concentrations
Excerpt: (§3) HMT and HDM are two major classes of enzymes, contributing to the regulation of histone methylation. Lysine-specific demethylase 1 (LSD1) and histone lysine demethylase 5 (KDM5, also known as JARID1) majorly catalyze demethylation of H3K4. A few KDM5 chemical inhibitors have been reported to inhibit demethylation of H3K4, leading to an increase of global methylated H3K4 in various cell types. The inventors tested the inhibitory effect of O4I3 on LSD1 and KDM5. KDM4 (also known as JMJD2), the HDM of H3K9 and H3K36, was also included.
as §2

KDM4 = system: T1, KDM4; experiment: KDM4 (JMJD2) demethylase inhibition, nuclear extraction; assay type: biochemical; conditions: micromolar concentrations
T1 construct: other: whole-cell nuclear extraction; other: micromolar concentrations
Excerpt: as §3, §2

Oct4 [6] = experiment: Luciferase reporter assay in NCCIT-Oct4 cells; assay type: cell-based, human; conditions: 10 μM, 48 h

Compound: CCOC(=O)c1csc(Nc2ccc(Cl)cc2)n1 [O4I2]
- metabolic conversion in cells [1]: occurrence of ester-to-acid conversion

Compound: Cc1cccc(Nc2nc(C(C)(C)C)cs2)c1C [O4I4]
- activity in three luciferase reporter cell lines (OCT4-promoter): among the most active compounds
- expression of NANOG, increase as compared to 0.1% DMSO treatment [2]: 30 fold
- expression of OCT4, increase as compared to 0.1% DMSO treatment [2]: 3 fold
- survival ratio under oxidative stress (C. elegans [3]): increased survival ratio
- lifespan (C. elegans [4]): life extension
- localization of daf-16 (daf-16): nucleic translocation
- OCT4 protein (Oct4 [5]): dose-dependent increase

Compound: Cc1ccc(-c2nc3ccc(C)cn3c2CC(=O)N(C)C)cc1 [zolpidem, N,N-dimethyl-2-(6-methyl-2-p-tolylimidazo[1,2-a]pyridin-3-yl)acetamid, reference compound]
- induction in NCCIT-Nanog reporter cells (Nanog): ~2 fold
- maintenance of iPSCs (hiPSCs): sustained the maintenance of iPSCs
- reprogramming of resistant fibroblasts (human fibroblasts): facilitated the reprogramming of resistant fibroblasts
- protection of H3K4 methylation (methylated H3K4): protected H3K4 methylation
- inhibition of KDM5 (KDM5): inhibited
- inhibition of KDM4 (KDM4): inhibited
- induction in NCCIT-Oct4 reporter cells (Oct4 [6]): ~2 fold
